Measured values taken from PMC4052546 (Pharmaceuticals, 2011).
Like-named read-outs stand apart in the source and are kept apart here.

Experiments:
[1] = Pharmacokinetics of AS and DHA in rat plasma after single and multiple intravenous AS injections (automated blood sampler, LC-MS/MS); assay type: in vivo, Sprague-Dawley rats; conditions: for Cmax / MRT / Tmax / clearance / AUC(0-t) / AUC / half-life / average plasma concentration over 0–72 h (Cav = AUC0–72 h/72): male, Sprague-Dawley, rat, plasma, iv; for AUC(0-t): read-out: AUC0–3 h; for AUC: read-out: AUCinfininty;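 as to all read-outs here: blood drawn through a jugular vein catheter by an automated sampling system, plasma drug levels measured by LC-MS/MS with positive electrospray ionization against standard curves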
Method: The Culex ABS is a blood sampling and metabolism monitoring machine, which is controlled by its own internal computer. We were successful in evaluating PK for long-term periods by using this system. After jugular vein cannulation, study animals were individually placed in the system, which allowed for a micro-pump to infuse heparinized-saline (10 unit heparin/mL saline) at a rate of 1-2 μL/min to prevent coagulation within the catheter. Culex samples were obtained with precise blood volumes from the study animals and the total volume taken was less than 6% per day and 14% during the entire study period. Blood samples were maintained at 3 °C using Culex's temperature-controlled fractional collector. Plasma was separated from the blood samples and processed for drug extraction.
(§1) Three samples were collected during each phase of absorption, distribution, or elimination for full PK analysis on the first and last dosing days following intravenous bonus injection. Additionally, trough levels (pre-dose) samples were collected in between each dose to follow drug accumulation and a series PK approach (18 samples per animal) was used. Thus, each animal was dosed and plasma samples were obtained for up to three days. A total of 18 (0, 5, 15, 30, 45 min, 1, 2, 3, 6, 24.25, 48.167, 48.25, 48.5, 48.75, 49, 50, 51, and 54 h) samples were collected into cooled vials. 50 μL of blood per sample was collected pre-dosing and after dosing and 100 μL per sample was taken from 0.08 h to 56 h after dosing. During collection, blood samples were added into the vials, which contained dried heparin (50 units) on the bottom of each vial. Thus, a total blood volume of 1.75 mL was obtained from each rat during the three day treatment period (0.85 mL of blood on day 0, 0.1 mL on day 1, and 0.9 mL on day 2), which is 9.3% of the animals total blood volume. Subjects for replicated crossover design were followed FDA recommendation [22] with a 2 week wash out period. During wash-out period, if the catheter was blocked up by any reasons the jugular vein tubes were infused or replaced.
The samples were vortexed vigorously (set at 10 or max setting) for 8–10 sec followed by a 10,000 × g centrifugation at 4 °C for 10 min. Aliquots (approximately 250 μL ea) of the undisturbed supernatants were transferred into a 96-well plate for LC-MS/MS analyses. […] Drugs were chromatographically separated using an acetonitrile/ammonium acetate gradient through a Waters XTerra C18 column (2.1 × 50 mm, 3.5 μm particle size) and corresponding pre-column. Quantification was done using the most abundant daughter ions following positive electrospray ionization. Chromatograms were analyzed using Xcalibur mass spectrometry software. The responses-concentrations standard curves were fitted and weighted.
The area under the curve (AUC) was determined by the linear trapezoidal rule with extrapolation to infinity based on the concentration of the last time point divided by the terminal rate constant. The bioequivalence (BE) evaluation of the two formulations were analyzed by using BE software (WinNonlin 5.2, Pharsight Co. Mountain View, CA. USA) in rats for a NDA application.

[2] = Hematology and recovery study after multiple intravenous AS; assay type: in vivo, rats
Method: At 24 and 96 h after the final dose of Chinese and WRAIR intravenous AS, male and female animals were anesthetized by isoflurane inhalation anesthesia (Abbott Labs, North Chicago, IL, USA) delivered by a small-animal anesthesia system (Euthanex Corp, Palmer Park, PA, USA). Each animal was initially placed in a chamber primed with 5% isoflurane, and upon induction, maintained in a non-rebreathing mask at 2% isoflurane delivered with […]. […] One mL of the blood sample was placed in K3 EDTA tubes (Beckton Dickinson, Franklin Lakes, NJ, USA) for CBC analysis using the ABX Pentra 60 hematology analyzer (ABX diagnostics, Irvine, CA, USA). Another 0.7 mL of blood was placed in serum separator tubes (Becton Dickinson, Franklin Lakes, NJ, USA) for biochemistry analysis using commercial assay kits on the Vitros 250 Chemistry analyzer (Johnson & Johnson, Rochester, NY, USA). Reticulocyte analysis was performed utilizing light microscopy. After sample collection, rats were euthanized by cervical dislocation.

[3] = rat, in vivo
Text: An automated blood sampler (Culex ABS, Bioanalytical Systems, Inc. West Lafayette, IN) was used for rat blood sample collection.
as §1
The area under the curve (AUC) was determined by the linear trapezoidal rule with extrapolation to infinity based on the concentration of the last time point divided by the terminal rate constant.

malaria parasites = conditions: incubation in vitro; cited from earlier work
parasitemia = test system: parasitemia; parameters: method as in earlier work; conditions: intravenous AS, clinical trials; cited from earlier work
[4] = cited from earlier work
[5] = Chinese formulation (AS/NaHCO3), 20 mg/kg i.v. daily for 3 days, male rats, Period 1, Day 3
[6] = Chinese formulation (AS/NaHCO3), 20 mg/kg i.v. daily for 3 days, male rats, Period 2, Day 3
[7] = WRAIR formulation (AS/0.3M PBS Buffer), 20 mg/kg i.v. daily for 3 days, male rats, Period 2, Day 3
[8] = 20 mg/kg, Chinese formulation (AS/NaHCO3), 20 mg/kg i.v. daily for 3 days, male rats, Period 1, Day 1
[9] = 20 mg/kg, Chinese formulation (AS/NaHCO3), 20 mg/kg i.v. daily for 3 days, male rats, Period 1, Day 3
[10] = 20 mg/kg, Chinese formulation (AS/NaHCO3), 20 mg/kg i.v. daily for 3 days, male rats, Period 2, Day 1
[11] = 20 mg/kg, Chinese formulation (AS/NaHCO3), 20 mg/kg i.v. daily for 3 days, male rats, Period 2, Day 3
[12] = 20 mg/kg, WRAIR formulation (AS/0.3M PBS Buffer), 20 mg/kg i.v. daily for 3 days, male rats, Period 1, Day 1
[13] = 20 mg/kg, WRAIR formulation (AS/0.3M PBS Buffer), 20 mg/kg i.v. daily for 3 days, male rats, Period 1, Day 3
[14] = 20 mg/kg, WRAIR formulation (AS/0.3M PBS Buffer), 20 mg/kg i.v. daily for 3 days, male rats, Period 2, Day 1
[15] = 20 mg/kg, WRAIR formulation (AS/0.3M PBS Buffer), 20 mg/kg i.v. daily for 3 days, male rats, Period 2, Day 3
[16] = male, Sprague-Dawley, iv, 20 mg/kg, 1 day

C[C@H]1[C@H](OC(=O)CCC(=O)O)O[C@@H]2O[C@@]3(C)CC[C@H]4[C@H](C)CC[C@@H]1[C@@]24OO3 [AS, artesunate]
AUC0–3 h ([1]; Chinese formulation (AS/NaHCO3), 20 mg/kg i.v. daily for 3 days, male rats, Period 1, Day 1): 867.5 ± 136.7 ng·h/mL | AUC0–3 h [1, 5]: 614.2 ± 191.8 ng·h/mL | Cmin [1, 5]: 4.35 ± 2.54 ng/mL | AUC0–3 h ([1]; Chinese formulation (AS/NaHCO3), 20 mg/kg i.v. daily for 3 days, male rats, Period 2, Day 1): 932.6 ± 144.2 ng·h/mL | AUC0–3 h [1, 6]: 665.4 ± 236.3 ng·h/mL | Cmin [1, 6]: 3.35 ± 2.11 ng/mL | Degree of Fluctuation = 100% × (Cmax − Cmin)/Cav [1, 6]: 1192 ± 219% | time at which Cmax was measured ([1]; Chinese formulation, 20 mg/kg i.v., rats, period 1, day 1): 5 min | time at which Cmax was measured ([1]; Chinese formulation, 20 mg/kg i.v., rats, period 2, day 1): 5 min | time at which Cmax was observed ([1]; Chinese formulation, 20 mg/kg i.v., rats, period 2, day 3): 5 min | AUC0–3 h ([1]; WRAIR formulation (AS/0.3M PBS Buffer), 20 mg/kg i.v. daily for 3 days, male rats, Period 1, Day 1, 20 mg/kg): 879.4 ± 167.4 ng·h/mL | Cmin ([1]; WRAIR formulation (AS/0.3M PBS Buffer), 20 mg/kg i.v. daily for 3 days, male rats, Period 1, Day 3): 3.56 ± 0.85 ng/mL | AUC0–3 h ([1]; WRAIR formulation (AS/0.3M PBS Buffer), 20 mg/kg i.v. daily for 3 days, male rats, Period 1, Day 3, 20 mg/kg): 611.1 ± 162.1 ng·h/mL | Cmin [1, 7]: 3.87 ± 1.57 ng/mL | Degree of Fluctuation = 100% X (Cmax − Cmin)/Cav [1, 7]: 1218 ± 172% | AUC0–3 h ([1]; WRAIR formulation (AS/0.3M PBS Buffer), 20 mg/kg i.v. daily for 3 days, male rats, Period 2, Day 3, 20 mg/kg): 669.7 ± 159.3 ng·h/mL | time at which Cmax was measured ([1]; WRAIR formulation, 20 mg/kg i.v., rats, period 1, day 1): 5 min | AS concentration on day 3 compared to day 1 ([1]; i.v. treatments in rats): one-third lower | Cmax [1, 8]: 4300 ng/mL | MRT [1, 8]: 15.6 ± 2.4 min | Tmax [1, 8]: 4.98 min | clearance [1, 8]: 380 ± 54.2 mL/min/kg | AUC(0-t) [1, 8]: 868 ng·h/mL | AUC [1, 8]: 872 ± 138 ng·h/mL | half-life ([1]; 20 mg/kg, Chinese formulation (AS/NaHCO3), 20 mg/kg i.v. daily for 3 days, male rats, Period 1, Day 1, read-out: t1/2 distribution (converted)): 3.6 ± 0.6 min | half-life ([1]; 20 mg/kg, Chinese formulation (AS/NaHCO3), 20 mg/kg i.v. daily for 3 days, male rats, Period 1, Day 1, read-out: t1/2 elimination (converted)): 24 ± 4.2 min | Cmax [1, 9]: 2460 ng/mL | MRT [1, 9]: 17.4 ± 6 min | Tmax [1, 9]: 4.98 min | average plasma concentration over 0–72 h (Cav = AUC0–72 h/72) [1, 9]: 204 ng·h/mL | clearance [1, 9]: 570 ± 170 mL/min/kg | AUC(0-t) [1, 9]: 614 ng·h/mL | AUC [1, 9]: 617 ± 193 ng·h/mL | half-life ([1]; 20 mg/kg, Chinese formulation (AS/NaHCO3), 20 mg/kg i.v. daily for 3 days, male rats, Period 1, Day 3, read-out: t1/2 distribution (converted)): 6 ± 1.8 min | half-life ([1]; 20 mg/kg, Chinese formulation (AS/NaHCO3), 20 mg/kg i.v. daily for 3 days, male rats, Period 1, Day 3, read-out: t1/2 elimination (converted)): 24.6 ± 6.6 min | Cmax [1, 10]: 4140 ng/mL | MRT [1, 10]: 15.6 ± 3 min | Tmax [1, 10]: 4.98 min | clearance [1, 10]: 360 ± 56.2 mL/min/kg | AUC(0-t) [1, 10]: 932 ng·h/mL | AUC [1, 10]: 935 ± 144 ng·h/mL | half-life ([1]; 20 mg/kg, Chinese formulation (AS/NaHCO3), 20 mg/kg i.v. daily for 3 days, male rats, Period 2, Day 1, read-out: t1/2 distribution (converted)): 4.8 ± 1.8 min | half-life ([1]; 20 mg/kg, Chinese formulation (AS/NaHCO3), 20 mg/kg i.v. daily for 3 days, male rats, Period 2, Day 1, read-out: t1/2 elimination (converted)): 25.8 ± 4.2 min | Cmax [1, 11]: 2540 ng/mL | MRT [1, 11]: 15.6 ± 5.4 min | Tmax [1, 11]: 4.98 min | clearance [1, 11]: 562 ± 240 mL/min/kg | AUC(0-t) [1, 11]: 665 ng·h/mL | AUC [1, 11]: 667 ± 238 ng·h/mL | half-life ([1]; 20 mg/kg, Chinese formulation (AS/NaHCO3), 20 mg/kg i.v. daily for 3 days, male rats, Period 2, Day 3, read-out: t1/2 distribution (converted)): 7.2 ± 1.8 min | half-life ([1]; 20 mg/kg, Chinese formulation (AS/NaHCO3), 20 mg/kg i.v. daily for 3 days, male rats, Period 2, Day 3, read-out: t1/2 elimination (converted)): 23.4 ± 7.8 min | Cmax [1, 12]: 4030 ng/mL | MRT [1, 12]: 18 ± 3.6 min | Tmax [1, 12]: 4.98 min | clearance [1, 12]: 378 ± 67.2 mL/min/kg | AUC(0-t) [1, 12]: 879 ng·h/mL | AUC [1, 12]: 882 ± 167 ng·h/mL | half-life ([1]; 20 mg/kg, WRAIR formulation (AS/0.3M PBS Buffer), 20 mg/kg i.v. daily for 3 days, male rats, Period 1, Day 1, read-out: t1/2 distribution (converted)): 4.8 ± 1.2 min | half-life ([1]; 20 mg/kg, WRAIR formulation (AS/0.3M PBS Buffer), 20 mg/kg i.v. daily for 3 days, male rats, Period 1, Day 1, read-out: t1/2 elimination (converted)): 24.6 ± 1.8 min | Cmax [1, 13]: 2430 ng/mL | MRT [1, 13]: 16.2 ± 5.4 min | Tmax [1, 13]: 4.98 min | average plasma concentration over 0–72 h (Cav = AUC0–72 h/72) [1, 13]: 204 ng·h/mL | clearance [1, 13]: 559 ± 118 mL/min/kg | AUC(0-t) [1, 13]: 611 ng·h/mL | AUC [1, 13]: 613 ± 163 ng·h/mL | half-life ([1]; 20 mg/kg, WRAIR formulation (AS/0.3M PBS Buffer), 20 mg/kg i.v. daily for 3 days, male rats, Period 1, Day 3, read-out: t1/2 distribution (converted)): 6 ± 2.4 min | half-life ([1]; 20 mg/kg, WRAIR formulation (AS/0.3M PBS Buffer), 20 mg/kg i.v. daily for 3 days, male rats, Period 1, Day 3, read-out: t1/2 elimination (converted)): 28.2 ± 6 min | Cmax [1, 14]: 4210 ng/mL | MRT [1, 14]: 16.8 ± 2.4 min | Tmax [1, 14]: 4.98 min | clearance [1, 14]: 387 ± 52.1 mL/min/kg | half-life ([1]; 20 mg/kg, WRAIR formulation (AS/0.3M PBS Buffer), 20 mg/kg i.v. daily for 3 days, male rats, Period 2, Day 1, read-out: t1/2 distribution (converted)): 4.8 ± 0.6 min | half-life ([1]; 20 mg/kg, WRAIR formulation (AS/0.3M PBS Buffer), 20 mg/kg i.v. daily for 3 days, male rats, Period 2, Day 1, read-out: t1/2 elimination (converted)): 26.4 ± 3.6 min | Cmax [1, 15]: 2710 ng/mL | MRT [1, 15]: 16.2 ± 3.6 min | Tmax [1, 15]: 4.98 min | clearance [1, 15]: 517 ± 162 mL/min/kg | AUC(0-t) [1, 15]: 670 ng·h/mL | AUC [1, 15]: 673 ± 160 ng·h/mL | half-life ([1]; 20 mg/kg, WRAIR formulation (AS/0.3M PBS Buffer), 20 mg/kg i.v. daily for 3 days, male rats, Period 2, Day 3, read-out: t1/2 distribution (converted)): 8.4 ± 1.2 min | half-life ([1]; 20 mg/kg, WRAIR formulation (AS/0.3M PBS Buffer), 20 mg/kg i.v. daily for 3 days, male rats, Period 2, Day 3, read-out: t1/2 elimination (converted)): 32.4 ± 11.4 min | total reticulocyte counts ([2]; 20 mg/kg AS intravenously, male and female rats, both formulations): significant reductions | all hematological parameters after recovery period ([2]; 20 mg/kg AS, 3 days post last dosing): reverted to normal | 90% CI for T/R, Lower, AUCD1 [3, 16]: 88.72% | 90% CI for T/R, Upper, AUCD1 [3, 16]: 111.28% | BE (bioequivalence), AUCD1 [3]: Yes | BE (bioequivalence), Cmax D1 [3]: Yes | 90% CI between the two intravenous formulations, AUC0–3 h ([3]; iv): 88.72–111.28% | 90% CI for the difference between the two i.v. formulations, AUC1–3D ([3]; iv): 87.65–112.35% | 90% CI of the difference between the two intravenous formulations, AUCD3 ([3]; iv): 82.30–117.69% | time to completely inhibit parasite growth (malaria parasites): 2 to 4 h | time for parasitemia to fall by half (parasitemia): 3.18 h | elimination half-life (t1/2) [4]: 2 to 18 min | Cmax and AUC values on the last dose day compared to the first day ([4]; multiple oral treatments in malaria patients and healthy subjects): reduced by one-third to one-seventh
